{"source": "patent US11882830B2", "about": "“Pesticidal mixture comprising a carboxamide compound and a biopesticide” (priority 2015, dated 2024)", "key": {"diamondback moth": {"test_system": "diamondback moth", "test": "Lepidopteran efficacy: neonate diamondback moth via radish leaf dip", "assay_type": "in vivo", "details": "Plutella xylostella, foliar, 48 h, broflanilide @ 0.01 ppm, 2 DAT, read-out: Mean % Mortality @ Days after Treatment 2 DAT", "text": "(§1) Synergism can be described as an interaction where the combined effect of two or more compounds is greater than the sum of the individual effects of each of the compounds.\n(§2) When the observed combined control effect is greater than the expected combined control effect (E), then the combined effect is synergistic.\n(§3) Large leaf lima bean (southern armyworm) and radish (diamondback moth) were dipped in treatment solution and allowed to dry. The leaves were excised and placed individually into square petri dishes containing two filter paper discs moistened with 0.5 ml of reverse osmosis water. One neonate insect per dish (total of 20 dishes per treatment, grouped into 5 dishes per replicate) were infested for the test with southern armyworm. Five insects per dish (total of 5 dishes per treatment) were infested for the test with diamondback moth. The studies were held in an environmental chamber 14 L: 10 D at 30° C. and 70% RH. The number of dead and moribund insects were recorded (moribund was considered dead). Rate rundowns were conducted initially to determine sublethal rates for the combination testing.\n(§4) 5 replications with 5 insects are each conducted per treatment, insects are held singly.\n(§5) Control mortality is less than 15% and standard treatments yielded 100% mortality."}, "southern armyworm": {"test_system": "southern armyworm", "test": "Lepidopteran efficacy: neonate southern armyworm via lima bean leaf dip", "assay_type": "in vivo", "details": "Spodoptera eridania, foliar, 96 h, broflanilide @ 0.0025 ppm, 4 DAT, read-out: Mean % Mortality @ Days after Treatment 4 DAT", "text": "as §1, §2, §3, §4, §5"}}}
{"smiles": "CN(C(=O)c1ccccc1)c1cccc(C(=O)Nc2c(Br)cc(C(F)(C(F)(F)F)C(F)(F)F)cc2C(F)(F)F)c1F", "note": "[broflanilide]", "values": [{"measurement": "mortality at 0.01 ppm", "setting": "diamondback moth", "result": 44, "unit": "%"}, {"measurement": "mortality at 0.0025 ppm", "setting": "southern armyworm", "result": 23.5, "unit": "%"}]}
